This note sets out measurements from patent publication US5021430A, “Certain N-substituted butyramide derivatives” (Ciba-Geigy Corporation, priority 1987, dated 1991).

The target in this assay is T1, enkephalinase (Rattus norvegicus, UniProt P07861).
T1 construct: synaptic membrane preparation from rat striatum; from tissue; host or cells: rat striatum, synaptic membrane preparation
T1 sequence (P07861 1-750): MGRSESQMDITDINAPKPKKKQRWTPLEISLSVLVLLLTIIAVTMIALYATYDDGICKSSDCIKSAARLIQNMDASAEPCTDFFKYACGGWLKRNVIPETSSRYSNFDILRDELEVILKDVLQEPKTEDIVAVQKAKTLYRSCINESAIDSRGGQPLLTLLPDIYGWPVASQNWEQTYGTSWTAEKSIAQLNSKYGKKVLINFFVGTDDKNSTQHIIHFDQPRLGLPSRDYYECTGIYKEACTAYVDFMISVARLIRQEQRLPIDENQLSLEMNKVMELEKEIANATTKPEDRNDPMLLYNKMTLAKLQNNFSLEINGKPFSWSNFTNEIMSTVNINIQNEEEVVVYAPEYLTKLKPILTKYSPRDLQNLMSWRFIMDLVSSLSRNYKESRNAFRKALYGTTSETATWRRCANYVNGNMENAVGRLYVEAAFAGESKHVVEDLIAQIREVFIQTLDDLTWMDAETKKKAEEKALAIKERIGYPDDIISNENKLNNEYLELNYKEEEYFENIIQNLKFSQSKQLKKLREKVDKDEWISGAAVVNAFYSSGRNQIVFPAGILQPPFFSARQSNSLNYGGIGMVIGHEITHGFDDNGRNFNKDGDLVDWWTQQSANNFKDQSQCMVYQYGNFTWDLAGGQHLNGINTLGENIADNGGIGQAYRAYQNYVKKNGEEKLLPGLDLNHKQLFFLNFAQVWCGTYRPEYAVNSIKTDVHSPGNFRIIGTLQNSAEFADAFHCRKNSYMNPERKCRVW
The assay can be described thus: enkephalinase inhibitory activity in vitro (inhibition of 3H-Tyr-gly-gly generation from 3H-Leu-enkephalin). The format is biochemical. To be noted: rat striatum synaptic membrane preparation, pH 6.5, 3H-Leu-enkephalin, 15 minutes at 30° C., 10^-6 M Bestatin. The procedure:
The enkephalinase inhibitory activity is determined in vitro by an adaptation of the method of Alstein et al. as described in Life Sciences 28, 185 (1981), as follows:
A mixture of a solution of the test compound in distilled water or distilled water and ethanol diluted with pH 6.5 buffer and of a synaptic membrane preparation from rat striatum is incubated at pH 6.5 with ^3 H-Leu-enkephalin for 15 minutes at 30° C., in the presence of 10^-6 M Bestatin (to inhibit aminopeptidase activity). The reaction is stopped by the addition of 30% acetic acid and the reaction product ^3 H-Tyr-gly-gly is separated from unreacted ^3 H-Leu-enkephalin on a Porapak O column followed by a Cu^++-chelex column. The ^3 H-Tyr-gly-gly is counted by liquid scintillation. The amount of ^3 H-Tyr-gly-gly generated in the presence of test compound as compared to control is then calculated. An IC50 value representing the concentration of test compound required for 50% inhibition of ^3 H-Tyr-gly-gly generation is then determined graphically.

Take `O=C(O)[C@H](Cc1ccccc1)C[C@@H](Cc1ccccc1)C(=O)N[C@@H](COCc1ccccc1)C(=O)O` [N-[(S,S)-2,4-dibenzyl-4-carboxybutyryl]-O-benzyl-(L)-serine]: the IC50 (in general, the point on the concentration scale where inhibition reaches its midpoint) (unit inferred) is roughly 4 nM.
Take `O=C(O)[C@H](Cc1ccccc1)C[C@@H](Cc1ccccc1)C(=O)N[C@@H](CSCc1ccccc1)C(=O)O` [N-[(S,S)-2,4-dibenzyl-4-carboxybutyryl]-S-benzyl-(L)-cysteine]: the half-inhibitory concentration (IC50) was roughly 6 nM.
Still for that read-out and setting: in the case of `O=C(O)[C@H](Cc1ccccc1)C[C@@H](Cc1ccccc1)C(=O)N[C@@H](CCc1ccccc1)C(=O)O` [N-[(S,S)-2,4-dibenzyl-4-carboxybutyryl]-(L)-homophenylalanine] it was roughly 5 nM.
